Source: US20100311759A1, “ANTIPARASITIC AGENT FOR FISH AND METHOD OF CONTROLLING PROLIFERATION OF FISH PARASITES” (NIPPON SUISAN KAISHA, LTD., priority 2007, published 2010)

What follows are compounds tested on Cryptocaryon irritans (assay: Examples 3 and 4: oral administration of single inhibitors and a combination, body length of Cryptocaryon irritans on Pagrus major (FIG. 4)). Details: 60 mg/kg fish body weight/day for three days; 60 parasites per plot; P≦0.01.
Assay type: in vivo
From the text: During the rearing period, 1.4 liters/min. of seawater was supplied. […] After exposure, seven fish each were moved into six 100-liter aquariums. During the rearing period, 1.4 liters/min. of seawater was supplied.

Compound	growth rate of parasites (body length as percentage of control plot), difference from control plot
N=C(N)c1ccc(OCCCCCOc2ccc(C(=N)N)cc2)cc1.O=S(=O)(O)CCO.O=S(=O)(O)CCO [PMD, isethionic acid pentamidine salt]	statistically significant difference
COc1cc(Cc2cnc(N)nc2N)cc(OC)c1OC [trimethoprim]	statistically significant difference
CN(Cc1cnc2nc(N)nc(N)c2n1)c1ccc(C(=O)N[C@@H](CCC(=O)O)C(=O)O)cc1 [methotrexate]	statistically significant difference

Same assay, conditions: 300 mg/kg fish body weight/day for three days; 60 parasites per plot; P≦0.01

Compound	growth rate of parasites (body length as percentage of control plot), difference from control plot
COc1cc(NS(=O)(=O)c2ccc(N)cc2)nc(OC)n1 [sulfadimethoxine]	statistically significant difference
COc1cc(NS(=O)(=O)c2ccc(N)cc2)ncn1 [sulfamonomethoxine]	statistically significant difference
Cc1ccnc(NS(=O)(=O)c2ccc(N)cc2)n1 [sulfamerazine]	statistically significant difference
sulfisozole	statistically significant difference
Cc1cc(NS(=O)(=O)c2ccc(N)cc2)nc(C)n1 [sulfisomidine]	statistically significant difference
Cc1nnc(NS(=O)(=O)c2ccc(N)cc2)s1 [sulfamethizole]	statistically significant difference

What follows are compounds tested on Cryptocaryon irritans (assay: Example 1: oral administration against parasitism of Cryptocaryon irritans on Pagrus major (1)). Details: 50 mg trimethoprim/kg body weight/day orally three days; three days after the exposure.

Compound	number of parasites (left gills, FIG. 1, control plot = one)
COc1cc(Cc2cnc(N)nc2N)cc(OC)c1OC [trimethoprim]	tend to be large
